# Values quoted from earlier work as cited in patent US20200020419A1, “METHODS OF ANALYZING CELLS” (Flagship Pioneering Innovations VI, LLC., priority 2018, published 2020).
structure (smiles),measurement,setting,value
Cc1ccc(-c2nn(C(C)(C)C)c3ncnc(N)c23)cc1 [PP1],"induction of transition of a mouse progenitor cell into a mouse neuron, known in the literature",mouse “progenitor” cell,known in the literature to be associated with induction of transition of a mouse “progenitor” cell into a mouse neuron
CC(C)(C)n1nc(-c2ccc(Cl)cc2)c2c(N)ncnc21 [PP2],"induction of transition of a mouse progenitor cell into a mouse neuron, known in the literature",mouse “progenitor” cell,known in the literature to be associated with induction of transition of a mouse “progenitor” cell into a mouse neuron
CC(/C=C/C(=O)NO)=C\[C@@H](C)C(=O)c1ccc(N(C)C)cc1 [Trichostatin A],"induction of transition of a MEF into a mouse progenitor cell, known in the literature",MEF,known in the literature to be associated with induction of transition of a MEF into a mouse “progenitor” cell
